In ChEMBL document CHEMBL1201862, “PubChem BioAssay data set” (2004):
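Briefly, cells in 96-well plates were exposed to five compound concentrations for 48 h, and endpoints were estimated by linear interpolation. GI50 marks 50% less growth.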 Activity calls are given as the source filed them. Cut-off read from the data, not from the text of the source: active = GI50 up to about 1.1 µM and inactive = higher.

Columns and labels:
Experiment in all cases: inhibition of tumour cell growth, NCI panel, 48 h
ACHN = system: ACHN
BT-549 = system: BT-549
CCRF-CEM = system: CCRF-CEM
COLO 205 = system: COLO 205
EKVX = system: EKVX
HL-60 = system: HL-60
HOP-92 = system: HOP-92
K562 = system: K562
M14 = system: M14
MCF7 = system: MCF7
MDA-MB-435 = system: MDA-MB-435
Malme-3M = system: Malme-3M
NCI-H522 = system: NCI-H522
OVCAR-5 = system: OVCAR-5
SK-MEL-2 = system: SK-MEL-2
SK-MEL-5 = system: SK-MEL-5
SN12C = system: SN12C
SNB-75 = system: SNB-75
SW-620 = system: SW-620
TK-10 = system: TK-10

Compound	GI50 (ACHN)	GI50 (BT-549)	GI50 (CCRF-CEM)	GI50 (COLO 205)	GI50 (EKVX)	GI50 (HL-60)	GI50 (HOP-92)	GI50 (K562)	GI50 (M14)	GI50 (MCF7)	GI50 (MDA-MB-435)	GI50 (Malme-3M)	GI50 (NCI-H522)	GI50 (OVCAR-5)	GI50 (SK-MEL-2)	GI50 (SK-MEL-5)	GI50 (SN12C)	GI50 (SNB-75)	GI50 (SW-620)	GI50 (TK-10)
COC1(OC)CCN(Cc2ccccc2)C1=O	6.28 µM (inactive)	17.2 µM (inactive)	2.25 µM (inactive)	4.54 µM (inactive)	16 µM (inactive)	1.69 µM (inactive)	11.1 µM (inactive)	3.27 µM (inactive)	10.4 µM (inactive)	4.39 µM (inactive)	15.6 µM (inactive)	> 100 µM (inactive)	> 100 µM (inactive)	17.7 µM (inactive)	15.4 µM (inactive)	15.3 µM (inactive)	10.4 µM (inactive)	16.2 µM (inactive)	2.86 µM (inactive)	16 µM (inactive)
C/C(=N\NC(=[Se])N(C)C)c1ccccn1	< 0.01 µM (active)	7.31 µM (inactive)	< 0.01 µM (active)	< 0.01 µM (active)	0.0703 µM (active)	< 0.01 µM (active)	1.09 µM (active)	< 0.01 µM (active)	0.0158 µM (active)	< 0.01 µM (active)	1.11 µM (active)	0.47 µM (active)	0.0497 µM (active)	0.103 µM (active)	0.585 µM (active)	0.0263 µM (active)	0.0143 µM (active)	0.462 µM (active)	< 0.01 µM (active)	1.87 µM (inactive)
C/C=C(/C)C(=O)O[C@@H]1CCN2CC[C@H](COC(=O)/C(=C/C)CO)C12 (stereo not given in full)	> 100 µM (inactive)	> 100 µM (inactive)	37.7 µM (inactive)	20.6 µM (inactive)	> 100 µM (inactive)	> 59.8 µM (inactive)	58.2 µM (inactive)	11.2 µM (inactive)	19.6 µM (inactive)	> 100 µM (inactive)	63.1 µM (inactive)	32 µM (inactive)	49.4 µM (inactive)	> 100 µM (inactive)	41.4 µM (inactive)	26.9 µM (inactive)	> 100 µM (inactive)	> 95.3 µM (inactive)	> 100 µM (inactive)	> 100 µM (inactive)
